# Reference: patent publication US4906658A, “Fluoro-sulfones” (Merck Frosst Canada, Inc., priority 1987, dated 1990)
# Several values for one entry are separate records, joined by “and”; a condition that tells them apart may be missing. Identical values can stand only once. Like-named read-outs stand apart in the source and are kept apart here.
# Key:
# [1] = system: antigen (egg albumin)-induced continuous dyspnea in inbred asthmatic rats; assay: Asthmatic Rat Assay: duration of continuous dyspnea after aerosolized antigen challenge in sensitized inbred asthmatic rats; type: in vivo; settings: for ED50: Rattus norvegicus, po, read-out: ED50 p.o. (dose which would inhibit the duration of symptoms by 50%)
# Excerpt: Sensitized inbred "asthmatic rats" challenged with aerosolized antigen respond with symptoms of continuous dyspnea which is partly mediated by serotonin. […] These rats differ from normal rats in that they have non-specific bronchial hyperreactivity to a number of bronchoconstrictor agents (Brunet et al, J. Immunol., 131, 434 (1983)).
# Pretreatment with drugs is used to measure the decrease of the duration of continuous dyspnea and, at higher doses, to eliminate the response (piechuta et a1, Immunology, 38, 385 (1979)).
# (1) Animals: Male and female inbred asthmatic rats were used between 10-12 weeks of age. Their weights ranged from 190-250 gm (females) and 260-400 gm (males). Rats were matched by sex and littermates between the various treatment groups. Animals were starved overnight. Water was supplied ad lib.
# (2) Materials: Egg albumin (EA), grade V, crystallized and lyophilized was obtained from Sigma Chemical Co., St. Louis. Aluminum hydroxide was obtained from the Reheis Chemical Company, Chicago. Methysergide Bimaleate was supplied by Sandoz Ltd., Basel, Switzerland. Serotonin creatinine sulfate was obtained from Calbiochem-Behring Corp., La Jolla, Calif.
# (3) Apparatus: The challenge and subsequent respiratory recordings were carried out in a clear
# plastic box with internal dimensions 10×6×4 inches. The top of the box was removable; in use, it was held firmly in place by four clamps and an airtight seal was maintained by a soft rubber gasket. […] A Fleisch No. 0000 pneumotachograph was inserted into one end of the box and coupled to a Grass volumetric pressure transducer (PT5-A) which was then connected to a Beckman Type R Dynograph through appropriate couplers. While aerosolizing the antigen, the outlets were open and the pneumotachograph was isolated from the chamber. The outlets were closed and the pneumotachograph and the chamber were connected during the recordings of the respiratory patterns. For challenge, 2 mL of a 3% solution of antigen in saline was placed into each nebulizer and the aerosol was generated with air from a small Potter diaphragm pump operating at 10 psi and a flow of 8 liters/min.
# (4) Procedure: Rats were sensitized by injecting (s.c.) 1 mL of suspension containing 1 mg albumin (EA) and 200 mg aluminum hydroxide in saline. They were used between days 12 and 24 post sensitization. Rats were exposed to aerosol of 3% EA in saline for exactly 1 minute, then their respiratory profiles were recorded for a further 30 minutes. The duration of continuous dyspnea was measured from the respiratory recordings.
# Compounds were generally administered either orally 1, 2, 4 or 6 hours prior to challenge or intravenously 2 minutes prior to challenge. Dose volume for oral treatments was 10 mL/kg and for i.v. treatments 1 mL/kg. Compounds were dissolved in distilled water. Methysergide bimaleate was dissolved in saline and administered intravenously at dose of 3 μg/kg 5 minutes before antigen challenge.
# The sensitivity of various drug treatments were determined in terms of the decrease in duration of dyspnea in comparison with a group of vehicle treated controls. Usually, a compound was evaluated at a series of doses and an ED50 value was determined. This was defined as the dose (mg/kg) which would inhibit the duration of symptoms by 50%.
# [2] = system: antigen (egg albumin)-induced continuous dyspnea in inbred asthmatic rats; settings: 3 μg/kg i.v. before challenge; cited from earlier work
# [3] = system: leukotrienes C4, D4 and E4 and SRS-A; assay: antagonism of leukotrienes C4, D4 and E4 and of SRS-A; settings: versus closely related compounds within the scope of EP No. 104,885
# Excerpt: The compounds of Formula I are active as antagonists of SRS-A and of leukotriene. The activity of the compounds of Formula I can be detected and evaluated by methods known in the art. See, for example, Kadin, U.S. Pat. No. 4,296,129.
# [4] = 1.5 mg/kg p.o., 1 hour before challenge
smiles,measurement,setting,value
"CCCc1c(OCCCS(=O)(=O)c2ccc([C@H](O)[C@@H](C)CC(=O)O)cc2)ccc(C(C)=O)c1O (relative stereo) [Ex. 77, (4R*,3S*)-4-[4-(3-(4-acetyl-3-hydroxy-2-propylphenoxy)propylsulfonyl)phenyl]-4-hydroxy-3-methybutanoic acid, reference compound]",Inhib. of Dyspnea,"[1]; 0.15 mg/kg p.o., 1 hour before challenge",33%
same,Inhib. of Dyspnea,"[1]; 0.5 mg/kg p.o., 1 hour before challenge",29%
same,Inhib. of Dyspnea,[1]; [4],29%
same,Inhib. of Dyspnea,"[1]; 5.0 mg/kg p.o., 1 hour before challenge",44%
same,ED50,[1]; 1 hr before challenge,> 5 mg/kg
CC[C@@H](CO)NC(=O)[C@@H]1C=C2c3cccc4c3c(cn4C)C[C@H]2N(C)C1 [methysergide],blocking of the serotonin component of continuous dyspnea,[2],completely blocked
"CCCc1c(O)c(C(C)=O)cc(F)c1OCCCSc1ccc([C@H](O)[C@@H](C)CC(=O)O)cc1 (relative stereo) [Ex. 93, (4R*,3S*)-4-[4-(3-(4-acetyl-6-fluoro-3-hydroxy-2-propylphenoxy)propylthio)phenyl]-4-hydroxy-3-methylbutanoic acid, reference compound]",Inhib. of Dyspnea,[1]; [4],26%
"CCCc1c(O)c(C(C)=O)cc(F)c1OCCCS(=O)(=O)c1ccc([C@H](O)[C@@H](C)CC(=O)O)cc1 (relative stereo) [Compound I, (4R*,3S*)-4-[4-(3-(4-acetyl-6-fluoro-3-hydroxy-2-propylphenoxy)propyl-sulfonyl)phenyl]-4-hydroxy-3-methylbutanoic acid]",Inhib. of Dyspnea,"[1]; 0.05 mg/kg p.o., 2 hours before challenge",40%
same,Inhib. of Dyspnea,"[1]; 0.15 mg/kg p.o., 2 hours before challenge",48%
same,Inhib. of Dyspnea,"[1]; 0.5 mg/kg p.o., 2 hours before challenge",57%
same,Inhib. of Dyspnea,[1]; [4],55%
same,Inhib. of Dyspnea,"[1]; 1.5 mg/kg p.o., 2 hours before challenge",59% and 65%
same,Inhib. of Dyspnea,"[1]; 1.5 mg/kg p.o., 4 hours before challenge",65%
same,Inhib. of Dyspnea,"[1]; 1.5 mg/kg p.o., 6 hours before challenge",63%
same,ED50,[1]; 2 hrs before challenge,0.21 mg/kg
same,absorption by the oral route,[1]; judged from activity p.o. in the Asthmatic Rat Assay,good absorption by the oral route
same,duration of action,"[1]; p.o., in words",satisfactory duration of action
same,potency,"[1]; p.o., in words",high potency
same,activity compared with the closely related reference compounds,"[1]; versus Ex. 77 and Ex. 93 of EP 104,885, p.o.",significantly more active than the closely related reference compounds
same,"potency as antagonists of leukotrienes C4, D4 and E4 and of SRS-A",[3],unexpectedly much more potent
